Molecules are shown by their SMILES. Values after ≈ are worked out from the molar mass of the structure shown.

The conditions of the data set: buffer; pH 7.4; 200.0 µM.
The term solubility (kinetic) denotes solubility judged after dilution from a stock solution rather than from solid. Turning to `Cc1cc(-c2csc3nc[nH]c(=S)c23)cc(C)c1C`, the solubility (kinetic) amounted to 3.1 µg/mL (≈ 10.8 µM).
Turning to `Cl.OC(CNCc1cccnc1)COc1ccc2ccccc2c1` (stereo unspecified), the kinetic solubility was determined as 43.5 µg/mL.
As for `O=C(O)c1cccc(S(=O)(=O)NCC2COc3ccccc3O2)c1` (stereo unspecified), the kinetic solubility was more than 52.4 µg/mL.
Take `C#CC(CC)(CC)NC(=O)c1ccc(Br)s1`: the solubility (kinetic) came to 18.6 µg/mL (≈ 62 µM).
In the case of `Cc1ccc(C(=O)Nc2ncccc2C)o1`, the solubility (kinetic) is more than 32.4 µg/mL.
As for `COc1ccc(-c2nc3ncccc3n2O)cc1`, the figure is more than 36.2 µg/mL; as for `O=C(N/C(=C/c1ccc(F)cc1)C(=O)N1CCCC1)c1ccccc1`, more than 50.8 µg/mL; as for `O=C(CNC(=O)c1ccccc1)NCc1ccc(Cl)cc1`, 10.6 µg/mL (≈ 35 µM).
As for `CCc1ccc(C2NC(=O)c3ccccc3O2)cc1` (stereo unspecified), the figure is 2.8 µg/mL (≈ 11.1 µM).
As for `CC1(C)CC(=O)C(N=Nc2cccc([N+](=O)[O-])c2)=C(O)C1`, the solubility (kinetic) was more than 43.4 µg/mL.
The compound `COC(=O)c1ccc(C(=O)OC)c(NC(=O)CSCC(=O)O)c1` returned a solubility (kinetic) of more than 51.2 µg/mL.
In the case of `COC(=O)c1ccsc1-n1cc(C#N)c(=O)n(C)c1=O`, the kinetic solubility was more than 43.7 µg/mL.
In the case of `Cc1ccc(C(=O)C2=C(O)C(=O)N(c3ncccn3)C2c2ccc(F)cc2)o1` (stereo unspecified), the kinetic solubility was more than 56.9 µg/mL.
With `Cc1ccc(NC(=O)C2CCCN2C(=O)NC2CCCCC2)cc1` (stereo unspecified) the figure was 1.9 µg/mL (≈ 5.77 µM); with `Cc1[nH]nc(SCC(=O)Nc2cccc(O)c2)c1[N+](=O)[O-]`, more than 46.2 µg/mL.
Consider `CC1CCCN(S(=O)(=O)c2ccc(Cl)s2)C1` (stereo unspecified), for which the kinetic solubility is 10.8 µg/mL (≈ 38.6 µM).
On to `Cc1ccc(N=C(N)N=C(N)N)c(C)c1`, for which the kinetic solubility is 28.8 µg/mL (≈ 140 µM).
The compound `O=C(c1ccc([N+](=O)[O-])cc1)N1CCc2ccccc21` yielded a solubility (kinetic) of 1 µg/mL (≈ 3.73 µM).
For the compound `CCc1nc(SCC(=O)O)c(C#N)c2c1CCCC2`, the kinetic solubility was more than 41.5 µg/mL.
As for `CC(=O)NC1(NC(C)=O)CCN(C)CC1`, the figure is more than 32 µg/mL; as for `CN(C(=O)C1CCCCN1S(=O)(=O)c1ccccc1)c1ccccc1` (stereo unspecified), more than 53.8 µg/mL.
On to `CCCCN(C(=O)CSc1nc(CCC)cc(=O)[nH]1)c1c(N)n(Cc2ccccc2)c(=O)[nH]c1=O`, for which the kinetic solubility was more than 74.8 µg/mL.
Consider `O=C(NCCOc1ccccc1)C1CCCCC1`, for which the solubility (kinetic) is more than 37.1 µg/mL.
With `CC1c2ccsc2CCN1C(=O)NC(=O)c1ccc(Cl)cc1` (stereo unspecified) the figure was 1.8 µg/mL (≈ 5.38 µM).
Take `CC(C)(C)S(=O)(=O)c1cnc(N2CCCC2)nc1N`: the kinetic solubility was determined as 37.9 µg/mL (≈ 133 µM).
Consider `CN(C)CCC(=O)C(Cc1ccccc1)c1ccccc1.Cl` (stereo unspecified), for which the kinetic solubility stood at 44.7 µg/mL.
Compound `O=C(CCCCC(=O)N1CCOCCOCCOCC1)OCc1ccccc1` yielded a kinetic solubility of 56.1 µg/mL (≈ 143 µM).
In the case of `CCCc1nc2cc3c(cc2[nH]1)n(C)c(=O)n3C.Cl`, the kinetic solubility was more than 42.1 µg/mL.
For the compound `CCOc1ccccc1NC(=O)COC(=O)C1CCC(=O)N1` (stereo unspecified), the solubility (kinetic) was more than 45.9 µg/mL.
The compound `CC1CCC(NC(=O)CSc2nncs2)CC1` (stereo unspecified) displayed a kinetic solubility of more than 40.7 µg/mL.
As to `N#Cc1cc(Sc2ccccn2)c([N+](=O)[O-])cc1C#N`, the kinetic solubility is more than 42.3 µg/mL.
The compound `COc1ccc(S(=O)(=O)n2cnc(C)c2)cc1` returned a kinetic solubility of more than 37.8 µg/mL.
As for `CN(C)c1nc(-c2cccs2)cc(C(F)(F)F)c1C#N`, the figure is 0.3 µg/mL (≈ 1.01 µM); as for `O=C(Cc1ccc([N+](=O)[O-])cc1)NC1CCCCCC1`, 15 µg/mL (≈ 54.3 µM).
`CCOC(=O)CCCNC(=O)CSc1nc2ccc(OCC)cc2[nH]1` showed a solubility (kinetic) of 51.4 µg/mL (≈ 141 µM).
For `CCCCCCCC(=O)NC1=NC(=O)C(C)(C)S1`, the kinetic solubility turned out to be 5 µg/mL (≈ 18.5 µM).
As for `COc1ccc(N2C(=O)Cc3c2nc(N)c(C#N)c3N)cc1`, the figure is 13 µg/mL (≈ 44 µM); as for `O=C(Nc1nc(-c2cccnc2)cs1)c1ccccc1[N+](=O)[O-]`, 0.7 µg/mL (≈ 2.15 µM).
Consider `Cc1c(C)n(Cc2ccccc2)c2ncnc(NCCN(C)C)c12`, for which the kinetic solubility was more than 48.5 µg/mL.
`Cc1c(C(=O)N2CCOCC2)cc(C(C)(C)C)n1-c1ccccc1`: the kinetic solubility is 45.3 µg/mL (≈ 139 µM).
Compound `O=C(Cc1cccs1)N1CCN=C1SCc1cccc(F)c1` came in with a solubility (kinetic) of 12.6 µg/mL (≈ 37.7 µM).
As to `O=C(Nc1cccc(S(=O)(=O)N2CCCCC2)c1)c1ccccn1`, the solubility (kinetic) came out at 5.1 µg/mL (≈ 14.8 µM).
`Nc1c(NCc2ccccc2)c(=O)c1=O` yielded a solubility (kinetic) of 5.9 µg/mL (≈ 29.2 µM).
`CSc1ccccc1C(=O)Nc1ccc2c(c1)CCC2`: the solubility (kinetic) was determined as 16.8 µg/mL (≈ 59.3 µM).
For the compound `CC(C)(C)c1ccc(C(=O)N2CCN(c3ncccn3)CC2)cc1`, the solubility (kinetic) was 9.6 µg/mL (≈ 29.6 µM).
Regarding `O=[N+]([O-])c1ccc(Nc2ccccc2O)c2nonc12`, the solubility (kinetic) was more than 40.8 µg/mL.
Turning to `CC1CCc2sc(C(=O)OCC(=O)NC(N)=O)cc2C1` (stereo unspecified), the solubility (kinetic) amounted to 2 µg/mL (≈ 6.75 µM).
`COc1cc(C(=O)NC2CCCCCCC2)cc(OC)c1OC` showed a solubility (kinetic) of less than 0.7 µg/mL.
On to `CCOc1ccccc1C(=O)OCC(=O)NCC1CCCCC1`, for which the solubility (kinetic) was more than 47.9 µg/mL.
With `CCCCCCC(O)(CCN1CCCCC1)c1ccccc1.Cl` (stereo unspecified), the kinetic solubility was 49.3 µg/mL.
The compound `CCC(=O)N(Cc1cc2ccccc2[nH]c1=O)c1ccc(OC)cc1` yielded a kinetic solubility of more than 50.5 µg/mL.
Regarding `O=C(C1CC1)N1c2ccccc2Sc2ccccc21`, the solubility (kinetic) is 7.1 µg/mL (≈ 26.6 µM).
Regarding `COc1ccc(CNC(=O)CSc2cccc3cccnc23)cc1`, the solubility (kinetic) was more than 50.8 µg/mL.
With `COc1ccc(C(CNS(=O)(=O)c2cccc(F)c2)N2CCCC2)cc1.Cl` (stereo unspecified) the figure was more than 62.2 µg/mL; with `COc1ccc(OC)c(Nc2nc(-c3ccncc3)nc3ccccc23)c1`, less than 0.2 µg/mL; with `O=C(COc1ccc(F)cc1)N1CCC(Cc2ccccc2)CC1`, 18.8 µg/mL (≈ 57.4 µM).
Take `O=C1CCCC2=C1C(c1ccc(O)c(O)c1)Nc1ccc3ccccc3c12` (stereo unspecified): the kinetic solubility was found to be 47.3 µg/mL (≈ 132 µM).
The compound `O=C(CCSCc1ccccc1Cl)NCc1ccco1` came in with a kinetic solubility of more than 46.5 µg/mL.
On to `NC(=O)/C(=C\c1ccco1)NC(=O)c1ccc(Br)o1`, for which the solubility (kinetic) was determined as 42.9 µg/mL (≈ 132 µM).
Take `O=C(NN1CCOCC1)c1cccc(Br)c1`: the solubility (kinetic) was more than 42.8 µg/mL.
`Cc1cccc(N=C2NC(=O)/C(=C/c3cccn3C)S2)c1` had a solubility (kinetic) of 1 µg/mL (≈ 3.36 µM).
As for `CCOc1cccc(C(=O)N2CCCN(C)CC2)c1`, the kinetic solubility turned out to be 35.6 µg/mL (≈ 136 µM).
Compound `Cc1ccc2nc(C3CCCCC3)[nH]c2c1` gave a solubility (kinetic) of more than 32.1 µg/mL.
For `Cc1ccc(S(=O)(=O)N2CCN(c3ccccc3)CC2)s1`, the kinetic solubility worked out at 2.3 µg/mL (≈ 7.13 µM).
With `O=C(COC(=O)c1cc2ccccc2o1)NCc1ccco1`, the solubility (kinetic) was determined as 17 µg/mL (≈ 56.8 µM).
With `Cc1cc([N+](=O)[O-])ccc1NC(=O)c1cc2ccccc2o1` the figure was less than 0.3 µg/mL; with `CCN(c1ccccc1)S(=O)(=O)c1ccc(OC)c(NC(=O)c2ccc(=O)[nH]c2)c1`, 24.2 µg/mL (≈ 56.6 µM).
`CCC(C)(C)NC(=O)c1ccc2c(c1)OCCO2` came in with a solubility (kinetic) of more than 37.4 µg/mL.
In the case of `Cl.Clc1ccccc1CN1CCNCC1`, the kinetic solubility is more than 37.1 µg/mL.
As to `COc1ccc(S(=O)(=O)N(C)CC(=O)NCc2ccccn2)cc1`, the kinetic solubility came to 37.6 µg/mL (≈ 108 µM).
On to `O=C(CCNC(=O)c1ccccc1Cl)NC1=NCCS1`, for which the solubility (kinetic) amounted to 42.8 µg/mL (≈ 137 µM).
Regarding `CCN(CC(=O)Nc1ccccc1OC)C(=O)CCc1ccccc1`, the solubility (kinetic) was 46 µg/mL (≈ 135 µM).
For `CCN1CCc2nc(N)sc2C1`, the kinetic solubility is 25.8 µg/mL (≈ 141 µM).
Consider `Cc1ccccc1NC(=O)C1COc2ccccc2O1` (stereo unspecified), for which the kinetic solubility amounted to 32.6 µg/mL (≈ 121 µM).
On to `CCCn1c(=O)c(-c2nc3ccccc3[nH]2)c(O)c2ccccc21`, for which the kinetic solubility came out at 0.4 µg/mL (≈ 1.25 µM).
In the case of `O=C(NCCCN1CCCC1=O)Nc1ccccc1Cl`, the kinetic solubility is more than 44.4 µg/mL.

The values above are taken from PubChem BioAssay AID1996.
